Consider 36 molecules from US20230066286A1, “DEUTERATED TRYPTAMINE DERIVATIVES AND METHODS OF USE” (priority 2020, published 2023).

One data set concerns rat liver microsomes. Nature of the data set: Metabolic stability in rat liver microsomes (RLM). The conditions noted are these: for RLM, % (half-life as % vs. the related nondeuterated compound): values in square brackets are within 10% difference (assay's accuracy), no deuteration effect; for RLM (metabolized or not): last time point 120 min. Background: Liver microsomes are vesicles of endoplasmic reticulum, rich in cytochrome P450 enzymes.

For a further data set, the target named is T1, hrMAO-A (Homo sapiens, UniProt P21397).
T1 construct: purchased XenoTech Lot# 8213001
T1 sequence (P21397 1-527): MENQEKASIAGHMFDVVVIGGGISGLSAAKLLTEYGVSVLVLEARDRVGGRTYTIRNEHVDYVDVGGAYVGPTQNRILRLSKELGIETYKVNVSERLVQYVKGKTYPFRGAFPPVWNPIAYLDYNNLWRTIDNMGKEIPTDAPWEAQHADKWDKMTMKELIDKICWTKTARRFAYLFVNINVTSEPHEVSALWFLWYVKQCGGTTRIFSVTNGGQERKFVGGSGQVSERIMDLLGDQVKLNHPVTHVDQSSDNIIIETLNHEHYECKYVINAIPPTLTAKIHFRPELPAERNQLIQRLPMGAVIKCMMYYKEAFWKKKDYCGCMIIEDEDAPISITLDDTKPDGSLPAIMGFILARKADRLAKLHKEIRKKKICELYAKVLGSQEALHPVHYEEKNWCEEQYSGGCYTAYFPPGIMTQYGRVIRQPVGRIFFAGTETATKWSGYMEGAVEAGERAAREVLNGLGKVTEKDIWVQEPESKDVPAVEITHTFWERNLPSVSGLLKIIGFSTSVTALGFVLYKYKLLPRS
As to the kind of experiment: Metabolic stability in the presence of hrMAO-A. It counts as in vitro ADME. The conditions noted are these: for MAO (metabolized or not) / MAO, % (half-life as % vs. the related nondeuterated compound): MAO-A assay; for MAO (metabolized or not): last time point 120 min; for MAO, % (half-life as % vs. the related nondeuterated compound): values in square brackets are within 10% difference (assay's accuracy), no deuteration effect. The method, then:
The reaction mixture was prepared as described below. The co-dosed TAs were added into the reaction mixture at a final concentration of 1 microM each. The positive control, kynuramine (25 microM), was run simultaneously with the TAs in a separate reaction. The reaction mixture (without TAs or kynuramine) was equilibrated in a shaking water bath at 37° C. for 5 minutes. The reaction was initiated by the addition of the TAs or kynuramine, and the mixture was incubated in a shaking water bath at 37° C. Aliquots (100 microL) of the TA reaction mixture were withdrawn at 0, 5, 10, 20, 30, 60, and 120 minutes. Aliquots (100 microL) of the positive control reaction mixture were withdrawn at 0 and 30 minutes. TA and kynuramine samples were immediately combined with 100 microL of ice-cold 100% MeCN containing 0.1% formic acid and IS to terminate the reaction. The samples were then mixed and centrifuged to precipitate proteins. All TA samples were assayed by LC-HRAMS. The PARR (analyte to IS) at each time point was compared to the PARR at time 0 to determine the percent remaining at each time point. Reaction composition: hrMAO 0.02 mg/mL; Potassium Phosphate, pH 7.4 100 mM; Magnesium Chloride 5 mM; Test Articles (each) 1 microM.

The conditions of data set [1]: oral; cited from earlier work.
A short description of data set [2]: PK study in rats, cassette dosing. It counts as in vivo, rat. The following applies: % change vs. non-deuterated material, 5 mg/kg, oral gavage or via catheter. The method, then: (§1) The key PK parameters (presented as a % change vs. non-deuterated materials) are presented in Table 3 to include half-life (T½), area under the curve (AUC), bioavailability (F) and blood-to-plasma ration (BPR). Pharmacokinetics of the deuterated tryptamines was studied in rats. In a typical experiment, run as a cassette dosing, two groups of 5 Wistar female rats (200-250 g) with surgically inserted jugular vein catheter (Charles River, Andover, MA) were fasted for 12 h and then administered 5 mg/kg of the deuterated and 5 mg/kg of the related non-deuterated analog, by oral gavage or via a catheter for each group. At time points 0, 15, 30, 60 min, and 2, 4, 8, and 24 h, the resulting plasma was analyzed for the parent molecule using LC/MS spectroscopy. Two separate groups of 5 animals were used for determining blood-to-plasma ratio (BPR). Each group was sacrificed at time points 15 and 30 min, respectively, and the concentration of the parent drug was determined in the […] and plasma by LC/MS spectroscopy.

Data set [3] is described as follows: Blood-to-plasma ratio (BPR), parent drug in brain and plasma of rats. It counts as in vivo, rat. The conditions noted are these: % change vs. non-deuterated material. The method, then:
as §1

With `[2H]C([2H])(c1c[nH]c2cccc(O)c12)C([2H])([2H])N(C(C)C)C(C)C`, in the data set with rat liver microsomes (RLM assay), the “RLM, % (half-life as % vs. the related nondeuterated compound)” value (from here on “RLM, %”) was “[97] %”.
For `CCN(CC)CCc1c[nH]c2ccc(O)cc12`, the “RLM (metabolized or not)” value in the data set on rat liver microsomes (RLM assay) is reported as “R”.
Turning to `CC(C)NCCc1c[nH]c2ccccc12`, in the data set with rat liver microsomes (RLM assay), the “RLM (metabolized or not)” value is “R”.
With `[2H]C([2H])([2H])N(C([2H])([2H])[2H])C([2H])([2H])C([2H])([2H])c1c[nH]c2ccccc12` [DMT-d10], at hrMAO-A (MAO-A enzymatic assay), the “stability in the MAO-A enzymatic assay vs. less deuterated DMT analogs” value is “superiority”. The “% Remaining of Initial 0 min” value is 100.0% on hrMAO-A (hrMAO-A, d8 and d10 analogs of DMT); 100% at hrMAO-A (hrMAO-A, four test articles); 100% in the data set on rat liver microsomes (RLM, d8 and d10 analogs of DMT); 100% in the data set with rat liver microsomes (RLM, four test articles). The “% Remaining of Initial 5 min” value at hrMAO-A (hrMAO-A, d8 and d10 analogs of DMT, 5 min) is listed as 99.0%. Moreover, in the data set on rat liver microsomes (RLM, d8 and d10 analogs of DMT, 10 min), the “% Remaining of Initial 10 min” value is 56.0%. Moreover, the “metabolic stability vs. less deuterated DMT analogs” value in the data set with rat liver microsomes (rat liver microsomes) is “Further enhancement of metabolic stability”.
For `C=CCNCCc1c[nH]c2ccccc12`, the “RLM (metabolized or not)” value with rat liver microsomes (RLM assay) is listed as “R”.
In the case of `CCN(C)CCc1c[nH]c2cccc(OC)c12`, the “MAO (metabolized or not)” value on hrMAO-A was “R”. For the same molecule, the “RLM (metabolized or not)” value in the data set with rat liver microsomes (RLM assay) is listed as “R”.
Regarding `CCNCCc1c[nH]c2ccccc12`, the “MAO (metabolized or not)” value on hrMAO-A is on record as “R”. Also, the “RLM (metabolized or not)” value in the data set on rat liver microsomes (RLM assay) is “R”.
In the case of `CCN(C)CCc1c[nH]c2ccccc12`, on hrMAO-A, the “MAO (metabolized or not)” value is reported as “R”. In the data set with rat liver microsomes (RLM assay), the “RLM (metabolized or not)” value is recorded as “R”.
For the molecule `COc1cc(CCNCc2ccccc2OC)c(OC)cc1Cl` [2C-C-NBOMe, 2-(4-Chloro-2,5-dimethoxyphenyl)-N-[(2-methoxyphenyl)methyl]ethan-l-amine], in data set [1], the “orally active dose, as low as” value is reported as 25 µg and the “very strong psychedelic doses” value is 500 to 700 µg.
In the case of `COc1ccc2[nH]cc(CCN(C)C)c2c1`, the “MAO (metabolized or not)” value on hrMAO-A was “R”. Moreover, the “RLM (metabolized or not)” value in the data set on rat liver microsomes (RLM assay) is recorded as “R”.
On to `CCN(CC)CCc1c[nH]c2ccccc12`, for which, in the data set on rat liver microsomes (RLM assay), the “RLM (metabolized or not)” value is “R”.
`CNCCc1c[nH]c2ccccc12`: the “MAO (metabolized or not)” value on hrMAO-A was “R”. Further, in the data set with rat liver microsomes (RLM assay), the “RLM (metabolized or not)” value is “R”.
As for `CN(C)CCc1c[nH]c2ccccc12` [DMT], at hrMAO-A (hrMAO-A, four test articles), the CLint came to 0.638 mL/min/ mg protein and the “% Remaining of Initial 0 min” value is listed as 100%. In addition, the “% Remaining of Initial 0 min” value with rat liver microsomes (RLM, four test articles) is on record as 100%. The “% Remaining of Initial 20 min” value in the data set on rat liver microsomes (RLM, four test articles, 20 min) amounted to 41.0%.
In the case of `CCN(CC)CCc1c[nH]c2ccc(OC)cc12`, the “RLM (metabolized or not)” value with rat liver microsomes (RLM assay) is on record as “R”.
On to `[2H]c1[nH]c2c([2H])c([2H])c([2H])c([2H])c2c1C([2H])([2H])C([2H])([2H])N(C([2H])([2H])[2H])C([2H])([2H])[2H]` [DMT-dis], for which the “half-life compared to DMT-d10” value in the data set on rat liver microsomes (RLM assay, additional deuteration in the phenyl ring) is reported as “no improvement in half-life”.
As to `[2H]C([2H])(Cc1c[nH]c2ccccc12)N(C)C` [DMT-d2], the CLint on hrMAO-A (hrMAO-A, four test articles) stood at 0.126 mL/min/ mg protein. The “% Remaining of Initial 0 min” value on hrMAO-A (hrMAO-A, four test articles) was 100%; in the data set on rat liver microsomes (RLM, four test articles), 100%. Also, the “% Remaining of Initial 60 min” value on hrMAO-A (hrMAO-A, four test articles, 60 min) worked out at 76.0%; in the data set on rat liver microsomes (RLM, four test articles, 60 min) it was 32.0%.
On to `CCNCCc1c[nH]c2cccc(O)c12`, for which the “RLM (metabolized or not)” value with rat liver microsomes (RLM assay) is on record as “R”.
For the molecule `[2H]C([2H])(c1c[nH]c2ccc(OC)cc12)C([2H])([2H])N(CC)CC`, the “RLM, %” value in the data set on rat liver microsomes (RLM assay) was “[95] %”.
For `CNCCc1c[nH]c2cccc(O)c12`, the “MAO (metabolized or not)” value at hrMAO-A is reported as “R”. Moreover, the “RLM (metabolized or not)” value with rat liver microsomes (RLM assay) is recorded as “R”.
Consider `CC(C)N(CCc1c[nH]c2cccc(O)c12)C(C)C`, for which the “RLM (metabolized or not)” value in the data set on rat liver microsomes (RLM assay) was “R”.
As to `C=CCN(CC=C)CCc1c[nH]c2ccccc12`, the “RLM (metabolized or not)” value with rat liver microsomes (RLM assay) is “R”.
On to `[2H]C([2H])(Cc1c[nH]c2ccccc12)NC([2H])([2H])C([2H])([2H])[2H]`, for which the “MAO, % (half-life as % vs. the related nondeuterated compound)” value at hrMAO-A was 170%.
Take `[2H]C([2H])(NCC)C([2H])([2H])c1c[nH]c2ccccc12`: the “MAO, % (half-life as % vs. the related nondeuterated compound)” value on hrMAO-A is 140%.
Turning to `[2H]C([2H])(NCC)C([2H])([2H])c1c[nH]c2cccc(O)c12`, the “RLM, %” value in the data set with rat liver microsomes (RLM assay) is “[94] %”.
Regarding `[2H]C([2H])(c1c[nH]c2ccccc12)C([2H])([2H])N(C)C` [DMT-d4], the CLint on hrMAO-A (hrMAO-A, four test articles) stood at 0.119 mL/min/ mg protein. Also, the “% Remaining of Initial 0 min” value at hrMAO-A (hrMAO-A, four test articles) is 100%; with rat liver microsomes (RLM, four test articles) it was 100%.
For `CCN(CC)CCc1c[nH]c2cccc(OC)c12`, in the data set on rat liver microsomes (RLM assay), the “RLM (metabolized or not)” value was “R”.
As to `CCN(C)CCc1c[nH]c2ccc(OC)cc12`, the “MAO (metabolized or not)” value on hrMAO-A was “R”. In addition, the “RLM (metabolized or not)” value in the data set with rat liver microsomes (RLM assay) is “R”.
For the molecule `[2H]C([2H])(NC)C([2H])([2H])c1c[nH]c2cccc(O)c12`, the “RLM, %” value with rat liver microsomes (RLM assay) was determined as 160%.
Same read-out and setting: then `[2H]C([2H])(c1c[nH]c2cccc(OC)c12)C([2H])([2H])N(C)C`, with 190%.
For the molecule `CN(C)CCc1c[nH]c2ccc(O)cc12`, the “MAO (metabolized or not)” value at hrMAO-A is “R”. In addition, in the data set with rat liver microsomes (RLM assay), the “RLM (metabolized or not)” value was “R”.
`[2H]C([2H])(Cc1c[nH]c2ccc(OC)cc12)N(C)C` [5-MeO-DMT-α,α-d2]: in data set [2], the “AUC, deuterium kinetic isotope effect (% change)” value is reported as 60% and the “T½, deuterium kinetic isotope effect (% change)” value is on record as 30%. Also, the “BPR, 15 min, deuterium kinetic isotope effect (% change)” value in data set [3] (rats sacrificed at 15 min) was 120%. Besides, in data set [3] (rats sacrificed at 30 min), the “BPR, 30 min, deuterium kinetic isotope effect (% change)” value amounted to 180%.
Consider `COc1cccc2[nH]cc(CCN(C)C)c12`, for which the “MAO (metabolized or not)” value on hrMAO-A is given as “R”. The “RLM (metabolized or not)” value in the data set with rat liver microsomes (RLM assay) was “R”.
In the case of `CCN(C)CCc1c[nH]c2ccc(O)cc12`, the “MAO (metabolized or not)” value at hrMAO-A is “R”. Further, the “RLM (metabolized or not)” value in the data set with rat liver microsomes (RLM assay) is given as “R”.
Take `[2H]c1ccc2[nH]c([2H])c(CCN([2H])CC)c2c1O`: the “RLM (metabolized or not)” value with rat liver microsomes (RLM assay) is recorded as “R”.
As for `CC(C)NCCc1c[nH]c2cccc(O)c12`, in the data set with rat liver microsomes (RLM assay), the “RLM (metabolized or not)” value was “R”.
As to `[2H]C([2H])([2H])C([2H])([2H])NC([2H])([2H])C([2H])([2H])c1c[nH]c2cccc(O)c12`, the “RLM, %” value in the data set with rat liver microsomes (RLM assay) is “[93] %”.
